Reference: ChEMBL document CHEMBL1201862, “PubChem BioAssay data set” (2004)
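Step 1: Grow cells in 96-well plates. Step 2: Expose to compound for 48 hours at 5 concentrations. Step 3: Interpolate endpoints linearly; if unreached, use highest concentration. GI50 is the concentration that inhibits growth by half.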 The source made the active and inactive calls. Cut-off read from the data, not from the text of the source: active = GI50 up to about 1.1 µM and inactive = higher.

Tests used:
Experiment in all cases: growth of human tumour cells (NCI), 48 h
786-0 = test system: 786-0
A549 = test system: A549
ACHN = test system: ACHN
CAKI-1 = test system: CAKI-1
CCRF-CEM = test system: CCRF-CEM
DMS-273 = test system: DMS-273
EKVX = test system: EKVX
HCC 2998 = test system: HCC 2998
HCT-116 = test system: HCT-116
HCT-15 = test system: HCT-15
HL-60 = test system: HL-60
HOP-62 = test system: HOP-62
HOP-92 = test system: HOP-92
HT-29 = test system: HT-29
IGROV-1 = test system: IGROV-1
K562 = test system: K562
KM12 = test system: KM12
LOX IMVI = test system: LOX IMVI
LXFL 529 = test system: LXFL 529
M14 = test system: M14
MOLT-4 = test system: MOLT-4
NCI-H226 = test system: NCI-H226
NCI-H23 = test system: NCI-H23
NCI-H460 = test system: NCI-H460
NCI-H522 = test system: NCI-H522
OVCAR-5 = test system: OVCAR-5
OVCAR-8 = test system: OVCAR-8
RXF 393 = test system: RXF 393
RXF 631 = test system: RXF 631
SF-268 = test system: SF-268
SF-295 = test system: SF-295
SK-MEL-28 = test system: SK-MEL-28
SK-MEL-2 = test system: SK-MEL-2
SK-MEL-5 = test system: SK-MEL-5
SK-OV-3 = test system: SK-OV-3
SN12C = test system: SN12C
SNB-19 = test system: SNB-19
SNB-78 = test system: SNB-78
SR = test system: SR
SW-620 = test system: SW-620
TK-10 = test system: TK-10
U-251 = test system: U-251
UACC-257 = test system: UACC-257
UACC-62 = test system: UACC-62
UO-31 = test system: UO-31
XF498 = test system: XF498
A498 = test system: A498
COLO 205 = test system: COLO 205
DLD-1 = test system: DLD-1
DMS-114 = test system: DMS-114
HOP-18 = test system: HOP-18
KM-20L2 = test system: KM-20L2
M19-MEL = test system: M19-MEL
Malme-3M = test system: Malme-3M
OVCAR-3 = test system: OVCAR-3
OVCAR-4 = test system: OVCAR-4
RPMI-8226 = test system: RPMI-8226
SF-539 = test system: SF-539
SNB-75 = test system: SNB-75

Measured: GI50

C/N=c1/ss/c(=N\C(SC)=[N+](C)C)n1C.[O-][Cl+3]([O-])([O-])[O-]
> 100 µM: HCT-15
inactive: 786-0 > 100 µM | A549 > 100 µM | ACHN > 100 µM | CAKI-1 54.8 µM | CCRF-CEM 3.97 µM | DMS-273 > 100 µM | EKVX 80.7 µM | HCC 2998 > 100 µM | HCT-116 > 100 µM | HL-60 31.3 µM | HOP-62 > 100 µM | HOP-92 > 100 µM | HT-29 4.98 µM | IGROV-1 > 100 µM | K562 17.3 µM | KM12 > 100 µM | LOX IMVI > 100 µM | LXFL 529 > 100 µM | M14 > 100 µM | MOLT-4 21.1 µM | NCI-H226 > 100 µM | NCI-H23 > 100 µM | NCI-H460 4.09 µM | NCI-H522 14.8 µM | OVCAR-5 > 100 µM | OVCAR-8 > 100 µM | RXF 393 > 100 µM | RXF 631 8.13 µM | SF-268 > 100 µM | SF-295 > 100 µM | SK-MEL-28 > 100 µM | SK-MEL-2 > 100 µM | SK-OV-3 > 100 µM | SN12C > 100 µM | SNB-19 > 100 µM | SNB-78 > 100 µM | SR > 100 µM | SW-620 > 100 µM | TK-10 > 100 µM | U-251 > 100 µM | UACC-257 > 100 µM | UACC-62 3.99 µM | UO-31 > 100 µM | XF498 > 100 µM
active: SK-MEL-5 0.419 µM

CC1=Nc2c(O)nc(S)nc2NC(c2ccc(Cl)c(Cl)c2)C1 (stereo not given)
33.7 µM: HCT-15
inactive: 786-0 17.7 µM | A498 18.9 µM | A549 21.1 µM | ACHN > 65.2 µM | CAKI-1 30.3 µM | CCRF-CEM > 100 µM | COLO 205 18 µM | DLD-1 31.6 µM | DMS-114 35.6 µM | DMS-273 26.1 µM | EKVX 28.9 µM | HCC 2998 17.8 µM | HCT-116 15.8 µM | HL-60 > 100 µM | HOP-18 > 89.1 µM | HOP-62 46.3 µM | HOP-92 > 93.1 µM | HT-29 24.3 µM | IGROV-1 20.1 µM | K562 > 100 µM | KM-20L2 25.6 µM | KM12 17.7 µM | LOX IMVI 20 µM | LXFL 529 19.4 µM | M14 16.9 µM | M19-MEL 18.5 µM | MOLT-4 > 100 µM | Malme-3M > 89.7 µM | NCI-H226 22.6 µM | NCI-H23 19.4 µM | NCI-H460 67.8 µM | NCI-H522 74.3 µM | OVCAR-3 17.5 µM | OVCAR-4 25.5 µM | OVCAR-5 > 100 µM | OVCAR-8 18.7 µM | RPMI-8226 > 100 µM | RXF 393 17.5 µM | SF-268 32.2 µM | SF-295 20.1 µM | SF-539 21.1 µM | SK-MEL-28 18.3 µM | SK-MEL-2 > 100 µM | SK-MEL-5 23.6 µM | SK-OV-3 32.1 µM | SN12C 20.1 µM | SNB-19 > 45 µM | SNB-75 80.9 µM | SNB-78 60.4 µM | SR > 100 µM | SW-620 23.5 µM | TK-10 > 55.5 µM | U-251 17.3 µM | UACC-257 21 µM | UACC-62 29.8 µM | UO-31 29.9 µM | XF498 > 65.8 µM

O=C(C#Cc1ccccc1)N1c2ccccc2CC1c1c[nH]c2ccccc12 (stereo not given)
inactive: 786-0 16.2 µM | A498 28.9 µM | A549 18.6 µM | ACHN 19.7 µM | CAKI-1 11.4 µM | CCRF-CEM 4.63 µM | COLO 205 14.5 µM | DLD-1 2.07 µM | DMS-114 12.7 µM | DMS-273 12.7 µM | EKVX 15.4 µM | HCC 2998 17.2 µM | HCT-116 13.4 µM | HL-60 14.7 µM | HOP-62 8.95 µM | HOP-92 15.3 µM | HT-29 18 µM | IGROV-1 3.73 µM | K562 10.7 µM | KM-20L2 21.9 µM | KM12 15.6 µM | LOX IMVI 6.73 µM | LXFL 529 12.3 µM | M14 15 µM | M19-MEL 16.1 µM | MOLT-4 9.02 µM | Malme-3M 14.9 µM | NCI-H226 9.79 µM | NCI-H23 12.6 µM | NCI-H460 18.6 µM | NCI-H522 11 µM | OVCAR-3 14.6 µM | OVCAR-4 26.3 µM | OVCAR-5 24.8 µM | OVCAR-8 11.6 µM | RPMI-8226 13 µM | RXF 393 4.48 µM | RXF 631 14.3 µM | SF-295 15.5 µM | SF-539 13 µM | SK-MEL-28 14.9 µM | SK-MEL-2 12.5 µM | SK-MEL-5 14.4 µM | SK-OV-3 20.4 µM | SN12C 13 µM | SNB-19 30.3 µM | SNB-75 11.7 µM | SNB-78 13 µM | SR 12.3 µM | SW-620 15.3 µM | TK-10 21.4 µM | U-251 17.5 µM | UACC-257 19.1 µM | UACC-62 7.82 µM | UO-31 23.1 µM
11.5 µM: HCT-15
